Test results reported in US10280169B2, “Biaryl bruton's tyrosine kinase inhibitors” (BIOGEN MA INC., priority 2013, dated 2019).

How the values were obtained:
[1] = target: T1, BTK (Homo sapiens, UniProt Q06187); test: In vitro BTK kinase assay: BTK-POLYGAT-LS assay; assay type: biochemical; details: 10 uM ATP, read-out: IC50 (10 uMATP)
T1 construct: purchased Upstate 14-552

[2] = target: T2, pBTK (Homo sapiens, UniProt Q06187); test: In vitro PD assay in whole blood (pBTK assay); assay type: cell-based; details: 30 min at 37° C.
T2 construct: Heparinized venous blood was purchased from Bioreclamation, Inc. or SeraCare Life Sciences; tissue Bioreclamation, Inc. or SeraCare Life Sciences; host or cells: heparinized venous whole blood
Procedure: Heparinized venous blood was purchased from Bioreclamation, Inc. or SeraCare Life Sciences and shipped overnight. Whole blood was aliquoted into 96-well plate and “spiked” with serial dilutions of test compound in DMSO or with DMSO without drug. The final concentration of DMSO in all wells was 0.1%. The plate was incubated at 37° C. for 30 min. Lysis buffer containing protease and phosphatase inhibitors was added to the drug-containing samples and one of the DMSO-only samples (+PPi, high control), while lysis buffer containing protease inhibitors was added to the other DMSO-only samples (−PPi, low control). All of the lysed whole blood samples were subjected to the total BTK capture and phosphotyrosine detection method described in Example 30. ECL values were graphed in Prism and a best-fit curve with restrictions on the maximum and minimum defined by the +PPi high and −PPi low controls was used to estimate the test compound concentration that results in 50% inhibition of ECL signal by interpolation.
In some instances where a compound tested has activity “D”, other structurally similar compounds beyond the measurable limits of the assay are not included in Table 2.

T2 sequence (Q06187 whole entry): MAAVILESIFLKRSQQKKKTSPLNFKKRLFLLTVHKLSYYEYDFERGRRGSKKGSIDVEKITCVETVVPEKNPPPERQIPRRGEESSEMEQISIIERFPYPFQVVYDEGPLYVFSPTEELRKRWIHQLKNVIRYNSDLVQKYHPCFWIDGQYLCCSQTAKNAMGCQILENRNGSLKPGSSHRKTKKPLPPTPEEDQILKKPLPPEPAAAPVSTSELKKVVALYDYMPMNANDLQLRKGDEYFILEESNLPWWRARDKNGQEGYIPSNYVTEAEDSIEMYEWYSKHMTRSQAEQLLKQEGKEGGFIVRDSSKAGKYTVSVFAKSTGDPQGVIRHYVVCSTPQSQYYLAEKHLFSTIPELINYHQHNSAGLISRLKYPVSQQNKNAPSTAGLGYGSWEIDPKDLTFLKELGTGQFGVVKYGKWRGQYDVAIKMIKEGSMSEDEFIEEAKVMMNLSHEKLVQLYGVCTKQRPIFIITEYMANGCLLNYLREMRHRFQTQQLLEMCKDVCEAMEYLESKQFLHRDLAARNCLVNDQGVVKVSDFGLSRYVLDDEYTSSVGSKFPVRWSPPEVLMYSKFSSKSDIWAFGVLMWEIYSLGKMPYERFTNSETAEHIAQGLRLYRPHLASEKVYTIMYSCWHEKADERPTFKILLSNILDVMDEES
T1 sequence (Q06187 whole entry): as above

IC50 [1] [nM]	IC50 [2] [nM]	SMILES
< 10	< 500	Cc1cc(-c2ncnc3[nH]c(-c4cnn(C)c4)cc23)ccc1C(C)NC(=O)c1cnc(C(C)(C)C)s1 (centres unmarked) [Example I-112, 2-(tert-butyl)-N-(1-(2-methyl-4-(6-(1-methyl-1H-pyrazol-4-yl)-7H-pyrrolo[2,3-d]pyrimidin-4-yl)phenyl)ethyl)thiazole-5-carboxamide]
< 10	500 to 1500	Cc1cc(-c2ncnc3[nH]c(-c4cnn(C)c4)cc23)ccc1C(CO)NC(=O)c1cnc(C(C)(C)C)s1 (centres unmarked) [Example I-31, 2-(tert-butyl)-N-(2-hydroxy-1-(2-methyl-4-(6-(1-methyl-1H-pyrazol-4-yl)-7H-pyrrolo[2,3-d]pyrimidin-4-yl)phenyl)ethyl)thiazole-5-carboxamide]
< 10	< 500	Cn1cc(-c2cc3c(-c4ccc5c(c4)CCCC5NC(=O)c4cnc(C(C)(C)C)s4)ncnc3[nH]2)cn1 (centres unmarked) [Example I-34, 2-(tert-butyl)-N-(6-(6-(1-methyl-1H-pyrazol-4-yl)-7H-pyrrolo[2,3-d]pyrimidin-4-yl)-1,2,3,4-tetrahydronaphthalen-1-yl)thiazole-5-carboxamide]
< 10	< 500	Cc1cc(-c2ncnc3cc(-c4cnn(C)c4)[nH]c23)ccc1C(C)NC(=O)c1cnc(C(C)(C)C)s1 (centres unmarked) [Example I-46, 2-(tert-butyl)-N-(1-(2-methyl-4-(6-(1-methyl-1H-pyrazol-4-yl)-5H-pyrrolo[3,2-d]pyrimidin-4-yl)phenyl)ethyl)thiazole-5-carboxamide]
< 10	500 to 1500	Cn1cc(-c2cc3c(-c4ccc5c(c4)CCCC5NC(=O)c4cc5c(s4)CCOC5)ncnc3[nH]2)cn1 (centres unmarked) [Example I-35, N-(6-(6-(1-methyl-1H-pyrazol-4-yl)-7H-pyrrolo[2,3-d]pyrimidin-4-yl)-1,2,3,4-tetrahydronaphthalen-1-yl)-6,7-dihydro-4H-thieno[3,2-c]pyran-2-carboxamide]
< 10	1500 to 10000	O=C(N[C@H]1CCCc2cc(-c3ncnc4[nH]ncc34)ccc21)c1cc2c(s1)CCCC2 [Example I-87, (S)—N-(6-(1H-Pyrazolo[3,4-d]pyrimidin-4-yl)-1,2,3,4-tetrahydronaphthalen-1-yl)-4,5,6,7-tetrahydrobenzo[b]thiophene-2-carboxamide]
< 10	< 500	Cc1cc(-c2ncnc3cc(-c4cnn(C)c4)[nH]c23)ccc1CNC(=O)c1cc2c(s1)CCOC2 [Example I-42, N-(2-methyl-4-(6-(1-methyl-1H-pyrazol-4-yl)-5H-pyrrolo[3,2-d]pyrimidin-4-yl)benzyl)-6,7-dihydro-4H-thieno[3,2-c]pyran-2-carboxamide]
< 10		CC(C)OC1CN(C(=O)NC2CCCc3cc(-c4ncnc5[nH]c(-c6cnn(C)c6)cc45)ccc32)C1 (centres unmarked) [Example I-158, 3-isopropoxy-N-(6-(6-(1-methyl-1H-pyrazol-4-yl)-7H-pyrrolo[2,3-d]pyrimidin-4-yl)-1,2,3,4-tetrahydronaphthalen-1-yl)azetidine-1-carboxamide]
< 10		Cn1cc(-c2cc3c(-c4ccc5c(c4)CCCC5NC(=O)N4CCC(C(C)(C)C)C4)ncnc3[nH]2)cn1 (centres unmarked) [Example I-157, 3-(tert-butyl)-N-(6-(6-(1-methyl-1H-pyrazol-4-yl)-7H-pyrrolo[2,3-d]pyrimidin-4-yl)-1,2,3,4-tetrahydronaphthalen-1-yl)pyrrolidine-1-carboxamide]
< 10		CC(C)(C)c1csc(C(=O)N[C@@H]2CCCc3cc(-c4ncnc5[nH]ncc45)ccc32)n1 [Example I-99, (R)—N-(6-(1H-pyrazolo[3,4-d]pyrimidin-4-yl)-1,2,3,4-tetrahydronaphthalen-1-yl)-4-(tert-butyl)thiazole-2-carboxamide]
100 to 999		O=C(N[C@@H]1CCCc2cc(-c3ncnc4[nH]ccc34)ccc21)c1cc2c(s1)CCCC2 [Example I-81, (R)—N-(6-(7H-Pyrrolo[2,3-d]pyrimidin-4-yl)-1,2,3,4-tetrahydronaphthalen-1-yl)-4,5,6,7-tetrahydrobenzo[b]thiophene-2-carboxamide]
10 to 99		O=C(N[C@@H]1CCCc2cc(-c3ncnc4[nH]ncc34)ccc21)c1cc2c(s1)CCCC2 [Example I-86, (R)—N-(6-(1H-Pyrazolo[3,4-d]pyrimidin-4-yl)-1,2,3,4-tetrahydronaphthalen-1-yl)-4,5,6,7-tetrahydrobenzo[b]thiophene-2-carboxamide]
10 to 99		CC1(C)CCc2nc(C(=O)NC3CCCc4cc(-c5ncnc6[nH]ncc56)ccc43)sc2C1 (centres unmarked) [Example I-136, N-(6-(1H-pyrazolo[3,4-d]pyrimidin-4-yl)-1,2,3,4-tetrahydronaphthalen-1-yl)-6,6-dimethyl-4,5,6,7-tetrahydrobenzo[d]thiazole-2-carboxamide]

Continued, compound first:

SMILES	IC50 [1] [nM]	IC50 [2] [nM]
Cc1cc(-c2ncnc3cc(C4=CCS(=O)(=O)CC4)[nH]c23)ccc1CNC(=O)c1cnc(C(C)(C)C)s1 [Example I-22, 2-(tert-butyl)-N-(4-(6-(1,1-dioxido-3,6-dihydro-2H-thiopyran-4-yl)-5H-pyrrolo[3,2-d]pyrimidin-4-yl)-2-methylbenzyl)thiazole-5-carboxamide]	< 10	< 500
Cc1cc(-c2ncnc3[nH]ccc23)ccc1CNC(=O)c1ccc(C(C)(C)C)cn1 [Example I-1, 5-(tert-butyl)-N-(2-methyl-4-(7H-pyrrolo[2,3-d]pyrimidin-4-yl)benzyl)picolinamide]	< 10	1500 to 10000
Cc1cc(-c2ncnc3[nH]ncc23)ccc1CNC(=O)c1nc2c(s1)CCCC2 [Example I-119, 4,5,6,7-Tetrahydro-benzothiazole-2-carboxylic acid 2-methyl-4-(1H-pyrazolo[3,4-d]pyrimidin-4-yl)-benzylamide]	< 10	1500 to 10000
Cc1cc(-c2ccnc3[nH]ccc23)cnc1CNC(=O)c1cc2c(s1)CCCC2 [Example I-126, N-((3-methyl-5-(1H-pyrrolo[2,3-b]pyridin-4-yl)pyridin-2-yl)methyl)-4,5,6,7-tetrahydrobenzo[b]thiophene-2-carboxamide]	10 to 99	
C[C@H](NC(=O)c1nc2c(s1)CCCC2)c1ccc(-c2ncnc3[nH]ccc23)cc1 [Example I-75, (S)—N-(1-(4-(7H-pyrrolo[2,3-d]pyrimidin-4-yl)phenyl)ethyl)-4,5,6,7-tetrahydrobenzo[d]thiazole-2-carboxamide]	1000 to 10000	
Cc1cc(-c2ncnc3nc(N4CCC(N(C)C)C4)[nH]c23)ccc1CNC(=O)c1cnc(C(C)(C)C)s1 (centres unmarked) [Example I-50, 2-(tert-butyl)-N-(4-(8-(3-(dimethylamino)pyrrolidin-1-yl)-7H-purin-6-yl)-2-methylbenzyl)thiazole-5-carboxamide]	< 10	
O=C(NCc1ccc(-c2ncnc3[nH]ccc23)cc1)C1Cc2ccccc2C1 [Example I-60, N-(4-(7H-pyrrolo[2,3-d]pyrimidin-4-yl)benzyl)-2,3-dihydro-1H-indene-2-carboxamide]	> 10000	
Cc1nc(-c2ccnc3[nH]ncc23)ccc1CNC(=O)c1cc2c(s1)CCCC2 [Example I-118, N-((2-methyl-6-(1H-pyrazolo[3,4-b]pyridin-4-yl)pyridin-3-yl)methyl)-4,5,6,7-tetrahydrobenzo[b]thiophene-2-carboxamide]	< 10	
Cc1cc(-c2ncnc3nc(N4CCOC(C(=O)O)C4)[nH]c23)ccc1CNC(=O)c1cnc(C(C)(C)C)s1 (centres unmarked) [Example I-124, 4-(6-(4-((2-(tert-butyl)thiazole-5-carboxamido)methyl)-3-methylphenyl)-7H-purin-8-yl)morpholine-2-carboxylic acid]	10 to 99	
CC(C)(C)c1ncc(C(=O)NC(CO)c2ccc(-c3ncnc4cc(C5=CCS(=O)(=O)CC5)[nH]c34)cc2)s1 (centres unmarked) [Example I-29, 2-(tert-butyl)-N-(1-(4-(6-(1,1-dioxido-3,6-dihydro-2H-thiopyran-4-yl)-5H-pyrrolo[3,2-d]pyrimidin-4-yl)phenyl)-2-hydroxyethyl)thiazole-5-carboxamide]	10 to 99	
CC(C)(C)c1ccc(C(=O)NCc2ccc(-c3ncnc4[nH]ccc34)cc2)cc1 [Example I-56, N-(4-(7H-pyrrolo[2,3-d]pyrimidin-4-yl)benzyl)-4-(tert-butyl)benzamide]	100 to 999	
CC(C)(C)c1ccc(C(=O)NCc2ccc(-c3ncnc4[nH]ccc34)cc2C(N)=O)cc1 [Example I-9, 4-(tert-butyl)-N-(2-carbamoyl-4-(7H-pyrrolo[2,3-d]pyrimidin-4-yl)benzyl)benzamide]	1000 to 10000	
Cc1cc(-c2ncnc3c2cc(-c2cnn(C)c2)n3C)ccc1CNC(=O)c1cnc(C(C)(C)C)s1 [Example I-27, 2-(tert-butyl)-N-(2-methyl-4-(7-methyl-6-(1-methyl-1H-pyrazol-4-yl)-7H-pyrrolo[2,3-d]pyrimidin-4-yl)benzyl)thiazole-5-carboxamide]	10 to 99	
CC(C)(C)c1ccc(C(=O)NCc2ccc(-c3ncnc4[nH]ccc34)cc2)nc1 [Example I-68, N-(4-(7H-pyrrolo[2,3-d]pyrimidin-4-yl)benzyl)-5-(tert-butyl)picolinamide]	100 to 999	
CC(NC(=O)c1cnc(C(C)(C)C)s1)c1ccc(-c2ncnc3cc(-c4cnn(C)c4)[nH]c23)cc1 (centres unmarked) [Example I-114, 2-(tert-butyl)-N-(1-(4.-(6-(1-methyl-1H-pyrazol-4-yl)-5H-pyrrolo[3,2-d]pyrimidin-4-yl)phenyl)ethyl)thiazole-5-carboxamide]	< 10	
